# Laboratory results reported in PubChem BioAssay AID588383 (NMMLSC, 2011).
# Calls of active or inactive are those of the source.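 The calls were made as follows: active = half-effect concentration at most 10 µM with response change of 30% or more and an acceptable curve fit; inactive = the rest.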
# Biological target: GTPase HRas (Homo sapiens) (UniProt P01112)
# Experiment: wild-type Ras fluorescent GTP binding inhibition – biochemical, multiplex bead flow cytometry, round 1, selectivity assay for Cdc42 probe extension project, SAR follow-up (AID 588383)
# Details: GST-Ras wt beads, Bodipy-FL-GTP binding; for % response, lower = inhibition: at 100 µM (top of the series)
# GTPase HRas (Homo sapiens), sequence (P01112 whole entry, looked up): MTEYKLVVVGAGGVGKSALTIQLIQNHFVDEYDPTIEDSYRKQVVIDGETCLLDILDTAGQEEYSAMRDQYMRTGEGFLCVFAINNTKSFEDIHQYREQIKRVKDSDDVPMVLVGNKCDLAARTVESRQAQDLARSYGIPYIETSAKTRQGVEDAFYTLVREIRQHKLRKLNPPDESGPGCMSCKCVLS
"% response, lower = inhibition",EC50,Structure (SMILES)
inactive,–,O=C(C#Cc1ccccc1)c1cccc([N+](=O)[O-])c1
inactive,–,COc1ccc(C2CC(c3ccccc3)=NN2c2ccc(S(N)(=O)=O)cc2)cc1 (centres undefined)
–,78 nM,CC1(C)Cc2c(sc(NC(=S)NC(=O)c3ccccc3)c2C(=O)O)CO1
inactive,–,NS(=O)(=O)c1ccc(N2N=C(c3ccccc3)CC2c2ccccc2)cc1 (centres undefined)
